Laboratory results reported in patent US11597708B2, “Inhibitors of heat shock factors and uses thereof” (HSF Pharmaceuticals SA, priority 2016, dated 2023).

Experiments:
[1] = test system: inducible Hsp70 (HSP72); assay: HSP72 western blot in heat-treated HeLa cells; assay type: cell-based, human
Method: (§1) FIG. 4. (A) rluc, hspa7 and hspa1a mRNA levels in Z74 cells mock-exposed (−) or exposed to the indicated concentrations of compounds 058 or 115 for 2 hours, heat-treated (HS) at 43° C. for 30 min and post-incubated for one hour at 37° C. mRNA levels were quantified by reverse transcription-real-time PCR. (B) HSP72 levels in HeLa cells mock-exposed (−) or exposed to the indicated concentrations of compounds 058 or 115 for 2 hours, heat-treated (HS) at 43° C. for 30 min and post-incubated for 6 hours at 37° C. HSP72 levels were estimated by HSP72 WB. GAPDH levels served as “loading controls”.

[2] = test system: hspa7 (hsp70b); assay: Reverse transcription real-time PCR of hspa7 (hsp70b) mRNA in Z74 cells; assay type: cell-based, human; conditions: heat-treated, somewhat less sensitive than rluc gene
Method: as §1
(§2) To assess the transcriptional effects of the IHSF, cultures of Z74 cells were exposed for two hours to IHSF 058 or IHSF 115 at different concentrations, or to vehicle. Following heat treatment and a one-hour post-incubation at 37° C., extracts were prepared, and polyadenylated rluc, hsp70b (hspa7) and hspa1a RNA was quantified by reverse transcription and real-time PCR. […] IHSF 115 had somewhat more important effects than IHSF 058. […] We tend to discount the possibility that the latter data report effects on transcript stability.

[3] = target: T1, HSF1 levels (Homo sapiens, UniProt Q00613); assay: Anti-HSF1 western blot of HeLa cell extracts; assay type: cell-based; conditions: same extracts of exposed, heat-treated HeLa cells
T1 construct: functionally linked to an hsp70b promoter and therefore controlled by endogenous HSF1; endogenous in cells; host or cells: HeLa cells / HeLa-derived cell line Z74
T1 sequence (Q00613 whole entry): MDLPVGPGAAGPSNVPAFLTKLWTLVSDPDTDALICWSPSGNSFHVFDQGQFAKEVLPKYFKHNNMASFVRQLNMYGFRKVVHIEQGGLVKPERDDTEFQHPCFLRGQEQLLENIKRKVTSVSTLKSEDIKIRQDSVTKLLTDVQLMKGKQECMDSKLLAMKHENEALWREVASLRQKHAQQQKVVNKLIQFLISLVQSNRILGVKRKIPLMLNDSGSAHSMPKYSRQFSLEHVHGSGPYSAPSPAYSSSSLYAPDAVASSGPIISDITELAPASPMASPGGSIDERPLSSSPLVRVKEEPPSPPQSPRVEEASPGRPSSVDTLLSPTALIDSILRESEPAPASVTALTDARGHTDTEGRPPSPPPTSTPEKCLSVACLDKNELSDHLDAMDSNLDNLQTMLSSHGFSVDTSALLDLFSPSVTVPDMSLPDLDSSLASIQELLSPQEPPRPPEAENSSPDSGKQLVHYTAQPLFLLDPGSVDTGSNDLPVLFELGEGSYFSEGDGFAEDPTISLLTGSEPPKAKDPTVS
Method: (§3) FIG. 3. (A) HeLa cell cultures were mock-treated (−) or exposed for 2 hours to the indicated concentrations of compounds 058 or 115 and then heat-treated (HS) at 43° C. for 30 min. Top panels: HSF1 DNA-binding activities in cell extracts were determined by EMSA. The panels show the major HSF1-HSE DNA probe complexes. Middle panels: HSF1 levels assayed by western blot (WB). GAPDH served as a loading control. Bottom panels: HSF1 homooligomerization. Aliquots of extracts were EGS-treated and then analyzed by anti-HSF1 WB. The positions of pre-stained molecular weight marker proteins (MW, in thousands) are indicated to the right. Asterisks indicate the positions of monomeric and trimeric HSF1, respectively. (B) Relative occupancy of the hspa1a promoter was assessed by chromatin immunoprecipitation assay of HeLa cell cultures mock-treated (−) or treated with compounds 058 or 115 at 12.5 μM concentrations for 2 hours and then heat-treated (HS) at 43° C. for 30 min. Chromatin fragments were immunoprecipitated using HSF1 antibodies or an F4/80 LR (control) antibody, and associated hspa1a promoter DNA was quantified by real-time PCR. […]

[4] = test system: hsp70b/hspa7 promoter-driven rluc gene; assay: Reverse transcription real-time PCR of rluc mRNA in Z74 cells; assay type: cell-based, human; conditions: for rluc mRNA levels at 1 μM: 1 μM concentrations of the IHSF; for transcript levels of the hsp70b/hspa7 promoter-driven rluc gene: 2 h exposure at different concentrations, heat treatment, 1 h post-incubation at 37° C.
Method: as §1, §2

[5] = target: T2, HSF1 DNA-binding activity (Homo sapiens, UniProt Q00613); assay: EMSA of extracts of heat-treated HeLa cells exposed to compound; assay type: cell-based; conditions: HeLa cells exposed to different concentrations, heat-treated 43° C./30 min; effect of IHSF 058 at 25 or 50 μM
T2 construct: functionally linked to an hsp70b promoter and therefore controlled by endogenous HSF1; endogenous in cells; host or cells: HeLa cells / HeLa-derived cell line Z74
T2 sequence (Q00613 whole entry): as above
Method: as §3

[6] = test system: hspa1a; assay: Reverse transcription real-time PCR of hspa1a mRNA in Z74 cells; assay type: cell-based, human; conditions: heat-treated, somewhat less sensitive than rluc gene
Method: as §1, §2

Row | Compound | heat-induced accumulation of inducible Hsp70 (WB) ([1]; 3.125 μM) | heat-induced accumulation of inducible Hsp70 (WB) ([1]; 6.25 μM) | hspa7 (hsp70b) transcript accumulation [2] | HSF1 levels (anti-HSF1 western blot) [3] | rluc mRNA levels at 1 μM [4] | transcript levels of the hsp70b/hspa7 promoter-driven rluc gene [4] | heat-induced HSF1 DNA-binding activity (EMSA) [5] | hspa1a transcript accumulation [6] | heat-induced accumulation of inducible Hsp70 (WB), relative effectiveness [1]
1 | CN(C(=O)/C=C/C1=NCCCO1)c1ncc(-c2cccnc2)s1 [IHSF 115, (E)-3-(5,6-Dihydro-4H-[1,3]oxazin-2-yl)-N-methyl-N-(5-pyridin-3-yl-thiazol-2-yl)-acrylamide] | detectable inhibitory effects | more substantial effects | Dose-dependent inhibitory effects | did not affect HSF1 levels | substantially reduced | dose-dependent reduction | failed to have a similar effect | Dose-dependent inhibitory effects | 
2 | CCOC(=O)/C=C/C(=O)Nc1ncc(-c2cccnc2)s1 [IHSF 058, (E)-3-(5-Pyridm-3-yl-thiazol-2-ylcarbamoyl)-acrylic acid ethyl ester] |  |  | Dose-dependent inhibitory effects | reduced levels of HSF1 | substantially reduced | dose-dependent reduction | important reductions | Dose-dependent inhibitory effects | less effective than IHSF 115
